# Assay results reported in paper PMC8129907 (Journal of Bone and Joint Infection, 2021).
# Where two headings read alike, the source gives them in different places. Marks after values point to notes of the source that are not given here.
# Legend:
# [1] = pig, 500 mg intraosseous, no tourniquet, microdialysis, mean (SD), n = 8; for AUC 0-last: 12 h
# Protocol: (§1) Eight female pigs, from the same supplier and raised under the same conditions, were included in the study (Danish Landrace Breed, age 5 months, weight 78–82 kg). The pigs were kept under general anesthesia with a continuous infusion of propofol (450–650 mg/h) and fentanyl (0.5–0.7 mg/h) throughout the entire study period. The arterial pH and body temperature were monitored and kept in the ranges of 7.37–7.52 and 36.4–40.0 ^∘ C, respectively. After the study, the pigs were euthanized using pentobarbital.
# An intraosseous cannula (15 mm) was inserted into the medial tibial condyle approximately 10 mm distal to the epiphyseal line; see Fig. 1. Three tibial microdialysis probes were placed in drill holes, one in the adjacent cancellous bone parallel to and at a mean distance of 9 (range 7–10) mm from the intraosseous cannula tip (drill depth 35±1 mm), one in the cortical bone at the anterior–medial margin of the tibial diaphysis (drill depth 14±0.5 mm), and one within the intramedullary canal of the tibial diaphysis. All drill holes were made with a 2 mm drill, which was paused every few seconds to prevent overheating of the bone tissue. Subsequently, a probe was placed in the synovial fluid of the knee joint using a splittable introducer. Finally, a subcutaneous tissue probe was placed lateral to the knee joint. No tourniquet was applied. Correct positions of all the probes and the distance between the intraosseous cannula and the adjacent cancellous bone microdialysis catheter were verified by fluoroscopy.
# Due to continuous perfusion of the microdialysis system, a complete equilibrium across the semipermeable membrane will never occur. The concentration in the dialysate will therefore only represent a fraction of the absolute tissue concentration, which is expressed as the relative recovery. Thus, relative recovery must be determined to assess the absolute tissue concentrations. In the present study, all microdialysis probes were individually calibrated in the beginning of the study using the retrodialysis by drug method (Scheller and Kolb, 1991).
# In the present study we used CMA 107 precision pumps ( μ -Dialysis AB, Stockholm, Sweden) producing a flow rate of 1 µL/min and CMA 70 probes (membrane lengths 10 and 20 mm, molecular cutoff 20 kDa).
# (§2) Afterwards, all probes were individually calibrated by the retrodialysis method by collecting a 60 min sample. […] The first three dialysates were collected at times 40, 80, and 120 min. Thereafter, dialysates were collected at 60 min intervals from times 120 to 720 min, giving a total of 13 samples from each compartment over 12 h. Blood samples were drawn from a central venous catheter at the midpoint of the microdialysis sample intervals. The dialysates were instantly stored at -80 ^∘ C until analysis. Blood samples were stored at 5 ^∘ C for a maximum of 4 h before being centrifuged at 3000 rpm for 10 min. The obtained plasma aliquots were then stored at -80 ^∘ C until analysis.
# (§3) Intra-run (total) imprecisions for the assay were ±1.2 µg/mL (2 standard deviations – SD) at 6.6 and ±3.7 µg/mL (2 SD) at 29.1 µg/mL .
# Standard pharmacokinetic parameters were determined separately for each compartment in each pig by non-compartmental analysis using Stata (v. 14.1, StataCorp LLC, College Station, TX, USA). The area under the concentration–time curve (AUC 0-last ) was calculated using the trapezoidal rule. The maxima of all the recorded concentrations were defined as peak drug concentration ( Cmax ) and enabled a calculation of the time to Cmax ( Tmax ).
# [2] = tested on: Commonly encountered bacteria in orthopaedic infections; parameters: method as in Rybak, 2006; EUCAST, 2019; settings: range for commonly encountered bacteria in orthopaedic infections; ref Rybak, 2006; EUCAST, 2019; cited from earlier work
# [3] = proximal tourniquet applied before intraosseous administration, ref Young et al., 2014, Chin et al., 2018, Rubio-Martinez et al., 2006, cited from earlier work
# [4] = Plasma vancomycin concentrations after tibial intraosseous administration; settings: pig, 500 mg intraosseous, no tourniquet, mean (SD), n = 8
# Protocol: as §1, §2, §3
# Standard pharmacokinetic parameters were determined separately for each compartment in each pig by non-compartmental analysis using Stata (v. 14.1, StataCorp LLC, College Station, TX, USA). The area under the concentration–time curve (AUC 0-last ) was calculated using the trapezoidal rule. The maxima of all the recorded concentrations were defined as peak drug concentration ( Cmax ) and enabled a calculation of the time to Cmax ( Tmax ). Half-life ( T1/2 ) was determined for all compartments except for tibial cortical bone and calculated as ln(2)/ λeq , where λeq is the terminal elimination rate constant estimated by linear regression of the log concentration on time. For AUC 0-last and Cmax , a mixed model for repeated measurements was applied, taking the variance between pigs into account. The model assumptions were tested by visual diagnosis of residuals, fitted values, and estimates of random effects. A correction for degrees of freedom due to small sample size was handled using the Kenward–Roger approximation method. The t test was used to determine relevant pairwise comparisons. A p value <0.05 was considered to be significant. A Spearman test was used to test the correlation between the distance of the intraosseous cannula and the adjacent cancellous bone drill hole with the peak drug concentration. Statistical analyses were also performed using Stata. […] Values below the quantification limit were set to zero.
# [5] = intramedullary canal in the tibia
# [6] = synovial fluid of the knee joint
smiles,measurement,setting,value
CN[C@H](CC(C)C)C(=O)N[C@H]1C(=O)N[C@@H](CC(N)=O)C(=O)N[C@H]2C(=O)N[C@H]3C(=O)N[C@H](C(=O)N[C@H](C(=O)O)c4cc(O)cc(O)c4-c4cc3ccc4O)[C@H](O)c3ccc(c(Cl)c3)Oc3cc2cc(c3O[C@@H]2O[C@H](CO)[C@@H](O)[C@H](O)[C@H]2O[C@H]2C[C@](C)(N)[C@H](O)[C@H](C)O2)Oc2ccc(cc2Cl)[C@H]1O [vancomycin],AUC 0-last,[1]; [5],1980 (908) ^a min µg/mL
same,T1/2,[1]; [5],339 (332) min
same,Tmax,[1]; [5],65 (26) min
same,AUC 0-last,[1]; subcutaneous tissue,1881 (691) ^a min µg/mL
same,T1/2,[1]; subcutaneous tissue,361 (269) min
same,Tmax,[1]; subcutaneous tissue,70 (19) min
same,AUC 0-last,[1]; [6],1565 (758) ^a min µg/mL
same,T1/2,[1]; [6],217 (140) min
same,Tmax,[1]; [6],45 (21) min
same,T1/2,[1]; tibial cancellous bone,279 (188) min
same,Tmax,[1]; tibial cancellous bone,111 (94) min
same,"vancomycin concentration after 11.5 h (690 min), end concentration",[1]; tibial cancellous bone,278 (469) µg/mL
same,AUC 0-last,[1]; tibial cortical bone,326 (331) min µg/mL
same,Tmax,[1]; tibial cortical bone,405 (278) min
same,planktonic MIC,[2],0.5 to 4 µg/mL
same,systemic vancomycin plasma levels after tourniquet deflation,[3]; range,1.8 to 6.0 µg/mL
same,increase of plasma levels after tourniquet deflation,[3],4–10 fold
same,systemic vancomycin plasma levels during tourniquet inflation,[3],0.0 to 2.7 µg/mL
same,AUC 0-last,"[4]; plasma (free concentration, enzyme immunoassay), 12 h","3,673 (611) min µg/mL"
same,Cmax (peak drug concentration),"[4]; plasma (free concentration, enzyme immunoassay)",19 (2) µg/mL
same,T1/2,[4]; plasma,254 (128) min
same,Tmax,[4]; plasma,20 (19) min
